Test results as given in ChEMBL document CHEMBL4420067, “Inhibitors of alpha-amino-beta-carboxymuconic acid semialdehyde decarboxylase” (2018).

What follows are molecules tested against 2-amino-3-carboxymuconate-6-semialdehyde decarboxylase (Homo sapiens, UniProt Q8TDX5) (assay: Inhibition of human recombinant ACMSD1 expressed in Escherichia coli BL21 (DE3) cells assessed as reduction in conversion of 3-OH-anthranilic acid into ACMS by spectrophotometry).
Sequence of 2-amino-3-carboxymuconate-6-semialdehyde decarboxylase (Q8TDX5 whole entry): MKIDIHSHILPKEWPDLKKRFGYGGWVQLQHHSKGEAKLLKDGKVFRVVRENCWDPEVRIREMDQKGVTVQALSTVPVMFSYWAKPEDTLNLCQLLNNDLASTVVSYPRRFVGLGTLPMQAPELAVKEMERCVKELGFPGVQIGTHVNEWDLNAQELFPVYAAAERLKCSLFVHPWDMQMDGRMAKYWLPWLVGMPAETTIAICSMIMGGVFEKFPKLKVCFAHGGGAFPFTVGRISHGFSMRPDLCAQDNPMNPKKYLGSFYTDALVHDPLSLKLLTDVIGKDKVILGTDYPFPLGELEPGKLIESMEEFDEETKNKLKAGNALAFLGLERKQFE

IC50, > 100 nM:
COc1cccc(/C=C/c2[nH]c(=S)[nH]c(=O)c2C#N)c1OCC(=O)O
N#Cc1c(/C=C/c2ccccc2-c2cc(F)c(O)c(F)c2)[nH]c(=S)[nH]c1=O
N#Cc1c(/C=C/c2cccc(O)c2O)[nH]c(=S)[nH]c1=O
CCOc1cccc(/C=C/c2[nH]c(=S)[nH]c(=O)c2C#N)c1OCC(=O)O
COc1cccc(/C=C/c2[nH]c(=O)[nH]c(=O)c2[N+](=O)[O-])c1OCC(=O)O
